Reference: patent US5798350A, “Dopamine receptor ligands” (Allelix Biopharmaceuticals, Inc., priority 1996, dated 1998)

Molecular target: T1, human D4 receptors (Homo sapiens, UniProt P21917)
T1 construct: expressed in transfected cells
T1 sequence (P21917 1-419): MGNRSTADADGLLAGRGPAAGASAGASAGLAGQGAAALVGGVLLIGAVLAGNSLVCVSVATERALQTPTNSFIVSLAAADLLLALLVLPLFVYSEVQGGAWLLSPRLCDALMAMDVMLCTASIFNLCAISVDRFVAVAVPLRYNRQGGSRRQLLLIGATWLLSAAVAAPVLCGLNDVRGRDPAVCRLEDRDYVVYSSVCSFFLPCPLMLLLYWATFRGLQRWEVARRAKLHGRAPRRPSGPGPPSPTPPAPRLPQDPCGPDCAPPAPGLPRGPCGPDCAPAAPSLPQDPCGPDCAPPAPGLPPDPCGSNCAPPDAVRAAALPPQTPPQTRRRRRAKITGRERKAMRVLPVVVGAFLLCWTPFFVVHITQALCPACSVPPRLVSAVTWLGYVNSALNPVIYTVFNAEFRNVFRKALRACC
Experiment: Functional antagonist assay: reversal of dopamine inhibition of forskolin-stimulated adenyl cyclase (cAMP)
Type: cell-based
Conditions: dopamine and forskolin both 10 μM, read-out: % REVERSAL OF DOPAMINE EFFECT
Experimental: The D4 receptor responds to dopamine and other agonists by reducing adenyl cyclase mediated production of cyclic AMP. Particular test compounds were assayed for their ability to reverse dopamine inhibition of adenyl cyclase by the following procedure. Forskolin was used to elevate the basal adenyl cyclase activity.
CHO Pro 5 cells stably expressing human D4 receptors were plated in 6 well plates in DMEM (Dulbecco's Modified Eagle Medium)/F12(Nutrient Mixture F12 (Ham)) media with 10% FCS (fetal calf serum) and G418 (Geneticen Disulfate), and incubated at 37° C. in a CO2 incubator. The cells were allowed to grow to about 70% confluence before use in the assay.
The culture media of each well was removed by aspiration, and the wells were washed once with serum free media (SFM) (DMEM/F12) media. Then 2 mL of fresh SFM+IBMX media (SFM with 0.5 mM IBMX (3-isobutyl-1-methylxanthine0.1% ascorbic acid and 10 μM pargyline) was added to each well and then incubated at 37° C. for 10 minutes in CO2 incubator. Following incubation, SFM+IBMX media was aspirated and fresh SFM+IBMX media was added to wells separately with one of a) forskolin (10 μM final conc.); b) dopamine and forskolin (both 10 μM final conc.); and c) test compound ([…]), and dopamine and forskolin (both 10 μM final conc.). Basal adenyl cyclase activity was determined from wells with only SFM+IBMX media added.
The cells were then incubated at 37° C. for 30 minutes in a CO2 incubator. Following incubation the media was aspirated from each well and then washed once with 2 mL of PBS (phosphate buffered saline). Each well was then treated with 1 mL cold 95% ethanol:5 mM EDTA (2:1) at 4° C. for 1 h. The cells from each well were then scraped and transferred into individual Eppendorf tubes. The tubes were centrifuged for 5 minutes at 4° C., and the supernatants were transferred to new Eppendorf tubes. The pellets were discarded and the supernatants dried using a SpeedVac. The extracts were then reconstituted in 600 μL of 0.1M sodium acetate buffer, pH 6.1, and stored at 4° C. until assayed for cAMP concentration. cAMP content measured in fmoles/well for each extract was determined by EIA (enzyme-immunoassay) using Amersham Biotrak cAMP EIA kit (Amersham RPN 225).
Total inhibition (IO) of forskolin-stimulated adenyl cyclase activity by dopamine was determined as the difference in concentration of cAMP in the forskolin-treated cells (Cf) and dopamine-forskolin treated cells (Cd).
Net inhibition (I) of forskolin-stimulated adenyl cyclase activity by dopamine in the presence of an antagonist was determined as the difference in concentration of cAMP in the forskolin-treated cells (Cf) and test compound, dopamine and forskolin treated cells (C).
The ability of a test compound to reverse the dopamine inhibition (% reversal, %R) was determined by the formula: […]

inhibition at 1 µM | inhibition at 10 µM | Compound
47% | 40% | Clc1ccc2c(c1)C=C(N1CCN(Cc3ccc4c(c3)OCO4)CC1)c1ccccc1S2 [2-chloro-10-(4-piperonyl-1-piperazinyl)dibenzo[b,f]thiepine]
19% | 50% | Clc1ccc2c(c1)Nc1ccccc1N=C2N1CCN(Cc2ccc3c(c2)OCO3)CC1 [3-chloro-11-(4-piperonyl-1-piperazinyl)-5H-dibenzo[b,e][1,4]diazepine]
46% | 68% | Clc1ccc2c(c1)N=C(N1CCN(Cc3ccc4c(c3)OCO4)CC1)c1ccccc1O2 [8-chloro-11-(4-piperonyl)-1-piperazinyl)dibenz[b,f][1,4]oxazepine]
40% | 50% | c1ccc2c(c1)N=C(N1CCN(Cc3ccc4c(c3)OCO4)CC1)c1ccccc1O2 [11-(4-piperonyl)-1-piperazinyl)-dibenz[b,f][1,4]oxazepine]
